Experimental data published in ChEMBL document CHEMBL1201862, “PubChem BioAssay data set” (2004).
Activity calls are given as the source filed them.

How the values were obtained:
Estrogen receptor beta [1] = target: T1, Estrogen receptor beta (Homo sapiens, UniProt Q92731); experiment: blockers of SRC-3 recruitment to ERβ – biochemical, ELISA, streptavidin-HRP readout, orthogonal assay, confirmation (AID 1060)
Estrogen receptor beta [2] = target: T1, Estrogen receptor beta
[3] = target: T2, Neuropeptide Y receptor type 1 (Homo sapiens, UniProt P25929); experiment: IC50 of human NPY-Y1 blockers – cell-based, dose response (AID 1277); assay type: functional
T2 sequence (P25929 whole entry): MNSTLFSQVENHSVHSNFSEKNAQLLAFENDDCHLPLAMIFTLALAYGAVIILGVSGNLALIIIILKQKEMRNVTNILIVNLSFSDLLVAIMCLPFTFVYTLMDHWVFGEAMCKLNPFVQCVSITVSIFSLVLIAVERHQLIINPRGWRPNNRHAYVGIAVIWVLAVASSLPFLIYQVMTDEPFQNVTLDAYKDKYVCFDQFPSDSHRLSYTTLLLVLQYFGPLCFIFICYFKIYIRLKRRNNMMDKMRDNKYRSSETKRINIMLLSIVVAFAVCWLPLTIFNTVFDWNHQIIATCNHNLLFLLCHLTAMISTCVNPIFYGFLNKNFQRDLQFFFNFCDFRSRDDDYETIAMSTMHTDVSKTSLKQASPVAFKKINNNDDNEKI

[4] = target: T3, Neuropeptide Y receptor type 2 (Homo sapiens, UniProt P49146); experiment: IC50 for human NPY-Y2 blockade – cell-based, counter-screen for NPY-Y1 antagonist project, dose response (AID 1278); assay type: functional
T3 sequence (P49146 whole entry): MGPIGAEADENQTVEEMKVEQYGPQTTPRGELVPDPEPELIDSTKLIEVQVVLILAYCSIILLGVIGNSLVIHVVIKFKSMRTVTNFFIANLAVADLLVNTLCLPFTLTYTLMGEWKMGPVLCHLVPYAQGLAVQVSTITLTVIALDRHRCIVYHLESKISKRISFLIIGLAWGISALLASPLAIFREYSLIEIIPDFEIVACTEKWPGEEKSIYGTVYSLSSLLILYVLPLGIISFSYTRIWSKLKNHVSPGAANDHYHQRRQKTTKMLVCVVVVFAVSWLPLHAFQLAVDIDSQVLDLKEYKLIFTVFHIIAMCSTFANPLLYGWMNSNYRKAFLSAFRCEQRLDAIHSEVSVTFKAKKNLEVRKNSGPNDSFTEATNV

[5] = HPDE-C7 pancreatic duct cell viability loss – fluorescence, HTS (AID 430); assay type: functional, cell-based; details: Homo sapiens
[6] = test system: Streptococcus sp. 'group A'; experiment: Streptococcus pyogenes SK(-)GAS viability under kanamycin – luminescence, BacTiterGlo, confirmation, counter-screen for streptokinase expression inhibitor project, dose response (AID 1900); assay type: functional, organism-based
Streptococcus = experiment: GAS UMAA2166 growth inhibition – luminescence, BacTiterGlo, counter-screen for streptokinase expression inhibitor project, dose response (AID 1915); assay type: functional, organism-based;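 note: potency for reduction of bacterial viability or growth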
Streptokinase A = target: T4, Streptokinase A (Streptococcus pyogenes serotype M1, UniProt P10520); experiment: viability-normalized secreted streptokinase activity reduction – plasminogen activation absorbance, OD405, dose response (AID 1914); assay type: functional, Streptococcus pyogenes M1 GAS;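 note: secreted streptokinase activity via plasminogen activation per viability signal from cell pellet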
T4 sequence (P10520 whole entry): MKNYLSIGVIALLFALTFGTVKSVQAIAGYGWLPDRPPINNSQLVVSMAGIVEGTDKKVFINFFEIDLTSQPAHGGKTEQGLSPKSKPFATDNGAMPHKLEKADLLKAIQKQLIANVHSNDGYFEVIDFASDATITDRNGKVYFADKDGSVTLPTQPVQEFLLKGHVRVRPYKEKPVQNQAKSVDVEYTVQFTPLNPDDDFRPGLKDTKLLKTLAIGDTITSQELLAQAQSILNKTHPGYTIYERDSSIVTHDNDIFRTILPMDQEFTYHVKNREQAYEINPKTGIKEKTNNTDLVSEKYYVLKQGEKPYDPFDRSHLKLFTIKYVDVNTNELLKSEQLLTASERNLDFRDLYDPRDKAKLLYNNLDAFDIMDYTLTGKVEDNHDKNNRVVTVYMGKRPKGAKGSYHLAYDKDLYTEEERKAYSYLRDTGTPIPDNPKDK

Coagulation factor XII = target: T5, Coagulation factor XII (Homo sapiens, UniProt P00748); assay type: functional;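 note: activated factor XIIa alpha cleaving a fluorogenic AMC peptide substrate; inhibitor potency from loss of enzyme activity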
T5 sequence (P00748 whole entry): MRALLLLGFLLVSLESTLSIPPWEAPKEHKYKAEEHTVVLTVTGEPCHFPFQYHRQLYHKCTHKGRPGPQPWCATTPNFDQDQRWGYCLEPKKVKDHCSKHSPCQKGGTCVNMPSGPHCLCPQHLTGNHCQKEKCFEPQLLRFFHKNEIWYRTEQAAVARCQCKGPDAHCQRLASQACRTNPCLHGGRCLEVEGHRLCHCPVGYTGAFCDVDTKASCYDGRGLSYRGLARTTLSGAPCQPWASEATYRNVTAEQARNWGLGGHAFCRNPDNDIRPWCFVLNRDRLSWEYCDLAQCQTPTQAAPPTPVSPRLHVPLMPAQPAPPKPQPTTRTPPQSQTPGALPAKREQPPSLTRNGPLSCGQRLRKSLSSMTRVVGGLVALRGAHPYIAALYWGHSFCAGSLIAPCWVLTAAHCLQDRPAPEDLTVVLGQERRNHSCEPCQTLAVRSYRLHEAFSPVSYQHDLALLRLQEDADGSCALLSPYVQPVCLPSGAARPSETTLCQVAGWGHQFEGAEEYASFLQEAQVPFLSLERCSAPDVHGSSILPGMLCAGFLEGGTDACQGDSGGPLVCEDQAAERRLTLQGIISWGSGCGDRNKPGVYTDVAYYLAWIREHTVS

[7] = viability loss of HPDE-C7K cells – cell-based, fluorescence, HTS, primary screen (AID 431); assay type: functional; details: Homo sapiens
[8] = reduction of Shn3 3'UTR-driven luciferase in osteoblasts – cell-based, Clone20 osteoblasts, firefly luciferase, cherry-picked, dose response (AID 624132); assay type: functional;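 note: firefly luciferase luminescence from reporter carrying the Shn3 3'UTR in osteoblasts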
[9] = non-specific 3'UTR reporter inhibition in Clone20-Shn3RL – cell-based, Renilla luciferase, cherry-picked, counter-screen for Shn3 inhibitor project, dose response (AID 624133); assay type: functional
[10] = viability of uninfected HEp-2 cells – cell-based, HTS, cytotoxicity control for RSV inhibitor project, dose response (AID 2410); assay type: functional; details: human respiratory syncytial virus
[11] = loss of viability in HepG2 cells – cell-based, CellTiter-Glo, cherry-picked, cytotoxicity control for Shn3 inhibitor project, dose response (AID 624134); assay type: functional
Protein Tat = target: T6, Protein Tat (Human immunodeficiency virus type 1 group M subtype B (isolate HXB2)(HIV-1), UniProt P04608); assay type: functional;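 note: tat binding to TAR RNA read out by fluorescence polarization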
T6 sequence (P04608 whole entry): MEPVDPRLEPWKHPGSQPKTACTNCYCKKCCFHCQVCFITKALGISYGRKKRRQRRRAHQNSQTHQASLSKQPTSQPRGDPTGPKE

[12] = target: T7, Apoptotic protease-activating factor 1 (Homo sapiens, UniProt O14727); assay type: functional
T7 sequence (O14727 whole entry): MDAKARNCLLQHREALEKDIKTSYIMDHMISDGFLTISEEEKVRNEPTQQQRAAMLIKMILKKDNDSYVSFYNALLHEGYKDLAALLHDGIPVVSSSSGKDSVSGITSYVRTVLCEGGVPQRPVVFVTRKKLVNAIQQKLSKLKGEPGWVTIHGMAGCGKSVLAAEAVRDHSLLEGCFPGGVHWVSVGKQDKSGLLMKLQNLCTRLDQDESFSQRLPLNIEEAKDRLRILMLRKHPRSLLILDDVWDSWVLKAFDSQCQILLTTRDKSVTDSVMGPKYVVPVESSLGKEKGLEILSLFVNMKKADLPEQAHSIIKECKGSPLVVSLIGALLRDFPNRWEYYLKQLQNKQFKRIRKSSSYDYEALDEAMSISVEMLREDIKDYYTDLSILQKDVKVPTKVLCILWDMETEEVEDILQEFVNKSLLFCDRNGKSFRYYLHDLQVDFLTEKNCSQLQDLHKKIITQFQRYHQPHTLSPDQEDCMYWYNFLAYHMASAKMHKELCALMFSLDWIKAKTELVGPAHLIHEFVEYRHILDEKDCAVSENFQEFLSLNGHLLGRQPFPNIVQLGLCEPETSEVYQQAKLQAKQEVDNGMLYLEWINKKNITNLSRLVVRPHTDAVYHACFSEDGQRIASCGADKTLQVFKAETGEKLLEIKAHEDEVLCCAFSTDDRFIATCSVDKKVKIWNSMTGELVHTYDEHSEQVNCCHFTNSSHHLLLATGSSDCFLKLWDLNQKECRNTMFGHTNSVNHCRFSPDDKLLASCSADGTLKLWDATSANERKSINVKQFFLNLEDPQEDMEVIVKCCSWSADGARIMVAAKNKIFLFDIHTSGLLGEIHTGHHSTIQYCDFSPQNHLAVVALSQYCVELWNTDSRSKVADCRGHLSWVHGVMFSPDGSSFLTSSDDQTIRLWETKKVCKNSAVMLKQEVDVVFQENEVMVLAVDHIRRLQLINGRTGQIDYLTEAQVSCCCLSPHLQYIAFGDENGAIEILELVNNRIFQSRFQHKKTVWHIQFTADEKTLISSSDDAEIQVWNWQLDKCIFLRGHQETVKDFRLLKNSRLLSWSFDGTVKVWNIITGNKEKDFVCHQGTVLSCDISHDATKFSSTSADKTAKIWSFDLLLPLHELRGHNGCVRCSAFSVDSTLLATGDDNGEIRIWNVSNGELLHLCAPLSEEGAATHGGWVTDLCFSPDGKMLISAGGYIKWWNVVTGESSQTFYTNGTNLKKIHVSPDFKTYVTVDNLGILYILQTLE

[13] = target: T8, Replicative DNA helicase DnaB (Mycobacterium tuberculosis, UniProt P9WMR3); experiment: DnaB intein splicing inhibitors, dose response, biochemical, cell-free fluorescence (AID 449749); assay type: functional
T8 sequence (P9WMR3 whole entry): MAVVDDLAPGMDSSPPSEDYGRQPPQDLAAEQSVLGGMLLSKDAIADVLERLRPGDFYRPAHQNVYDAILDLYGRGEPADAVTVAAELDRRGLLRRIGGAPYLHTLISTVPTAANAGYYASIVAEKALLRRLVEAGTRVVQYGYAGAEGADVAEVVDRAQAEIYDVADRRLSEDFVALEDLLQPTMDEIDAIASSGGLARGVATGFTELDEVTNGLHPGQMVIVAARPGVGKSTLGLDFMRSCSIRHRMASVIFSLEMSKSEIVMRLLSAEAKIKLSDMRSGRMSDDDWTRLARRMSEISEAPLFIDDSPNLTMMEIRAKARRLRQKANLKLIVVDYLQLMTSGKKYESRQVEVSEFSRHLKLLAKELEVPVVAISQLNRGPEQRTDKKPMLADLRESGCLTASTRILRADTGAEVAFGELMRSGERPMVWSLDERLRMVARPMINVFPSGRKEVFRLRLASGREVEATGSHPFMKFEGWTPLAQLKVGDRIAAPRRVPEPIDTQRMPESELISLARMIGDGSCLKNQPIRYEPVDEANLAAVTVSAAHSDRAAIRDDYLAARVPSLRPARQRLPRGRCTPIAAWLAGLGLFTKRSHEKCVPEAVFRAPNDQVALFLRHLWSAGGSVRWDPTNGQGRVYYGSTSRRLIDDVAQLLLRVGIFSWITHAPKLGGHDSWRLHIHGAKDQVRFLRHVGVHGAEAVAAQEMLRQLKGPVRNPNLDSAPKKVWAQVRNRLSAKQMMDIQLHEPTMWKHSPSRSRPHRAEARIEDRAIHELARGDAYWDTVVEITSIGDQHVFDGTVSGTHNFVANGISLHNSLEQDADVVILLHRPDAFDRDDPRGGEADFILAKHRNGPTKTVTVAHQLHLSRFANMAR

Protein RecA = target: T9, Protein RecA (Mycobacterium tuberculosis, UniProt P9WHJ3); experiment: Fluorescence Cell-Free Homogeneous Dose Retest to Identify Inhibitors of RecA-Intein Splicing Activity. [Related pubchem assays (depositor defined):AID2097, AID2223, AID489010, AID492950]; assay type: functional
T9 sequence (P9WHJ3 whole entry): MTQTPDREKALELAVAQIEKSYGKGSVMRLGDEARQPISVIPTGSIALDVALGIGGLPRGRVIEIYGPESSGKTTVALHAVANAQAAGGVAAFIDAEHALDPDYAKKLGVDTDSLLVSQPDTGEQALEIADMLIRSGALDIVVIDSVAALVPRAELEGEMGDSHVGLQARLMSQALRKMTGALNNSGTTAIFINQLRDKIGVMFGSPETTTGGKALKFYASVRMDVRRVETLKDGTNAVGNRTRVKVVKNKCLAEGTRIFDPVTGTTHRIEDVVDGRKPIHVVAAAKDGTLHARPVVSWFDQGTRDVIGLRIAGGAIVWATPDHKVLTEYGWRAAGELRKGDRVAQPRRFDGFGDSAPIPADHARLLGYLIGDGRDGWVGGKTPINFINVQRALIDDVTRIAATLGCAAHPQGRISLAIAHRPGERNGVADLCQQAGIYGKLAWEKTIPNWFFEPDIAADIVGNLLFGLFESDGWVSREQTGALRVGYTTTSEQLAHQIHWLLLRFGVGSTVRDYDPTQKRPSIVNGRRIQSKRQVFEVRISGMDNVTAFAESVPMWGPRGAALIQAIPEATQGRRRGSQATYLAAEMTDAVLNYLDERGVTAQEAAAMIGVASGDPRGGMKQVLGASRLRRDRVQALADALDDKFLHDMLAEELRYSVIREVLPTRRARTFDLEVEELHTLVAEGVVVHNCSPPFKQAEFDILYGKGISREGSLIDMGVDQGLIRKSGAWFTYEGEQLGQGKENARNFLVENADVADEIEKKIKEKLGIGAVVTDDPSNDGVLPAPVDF

T1 sequence (Q92731 whole entry): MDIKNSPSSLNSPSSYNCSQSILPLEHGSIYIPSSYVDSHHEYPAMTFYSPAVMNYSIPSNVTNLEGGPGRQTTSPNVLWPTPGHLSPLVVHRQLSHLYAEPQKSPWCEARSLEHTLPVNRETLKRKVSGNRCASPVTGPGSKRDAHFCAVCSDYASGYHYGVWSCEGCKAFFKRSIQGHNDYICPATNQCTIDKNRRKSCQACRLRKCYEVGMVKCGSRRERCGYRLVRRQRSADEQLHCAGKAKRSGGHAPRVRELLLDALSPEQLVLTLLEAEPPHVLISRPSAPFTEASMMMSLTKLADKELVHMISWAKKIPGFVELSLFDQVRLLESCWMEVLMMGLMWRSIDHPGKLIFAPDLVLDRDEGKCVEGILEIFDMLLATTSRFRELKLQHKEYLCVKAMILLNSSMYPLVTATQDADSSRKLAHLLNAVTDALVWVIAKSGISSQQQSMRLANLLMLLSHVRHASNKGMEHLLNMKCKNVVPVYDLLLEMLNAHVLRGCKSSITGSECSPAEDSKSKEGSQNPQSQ

O=C(CSc1nnc(Nc2ccccc2F)s1)NCc1ccco1
IC50 (Estrogen receptor beta [1]): 0.142 µM (not active) | IC50 (Estrogen receptor beta [2]): 13.7 µM (active)

CC(NC(=O)Nc1nnc(C(F)(F)F)s1)(C(F)(F)F)C(F)(F)F
IC50 [3]: > 35 µM (not active) | IC50 [4]: > 35 µM (not active) | EC50 [5]: 8.76 µM (active) | EC50 [6]: 3.54 µM (active) | EC50 (Streptococcus): 7.84 µM (active) | EC50 (Streptokinase A): > 150 µM (not active) | IC50 (Coagulation factor XII): > 50 µM (inactive) | EC50 [7]: 14.4 µM (active)

CC(C)(C)n1nnnc1C(c1ccc(C(F)(F)F)cc1)N(Cc1ccccc1)Cc1ccco1 (stereo not drawn)
IC50 [3]: > 35 µM (not active) | IC50 [4]: > 35 µM (not active) | AC50 [8]: 4.74 µM (active) | AC50 [9]: 6.74 µM (active) | CC50 [10]: 9.91 µM (active) | AC50 [11]: 44.1 µM (active)

N#CC(C(=O)Nc1ccccc1)=C1CCCCC1
IC50 (Estrogen receptor beta [2]): > 50 µM (not active)

NC(=O)Cc1c[nH]c2cccc(O)c12
IC50 (Estrogen receptor beta [1]): > 50 µM (not active)

Nc1ccc(Oc2ncccn2)cc1
IC50 (Protein Tat): > 100 µM (active) | IC50 [12]: 25.7 µM (active) | AC50 [13]: 29.6 µM (active) | EC50 (Protein RecA): 13.8 µM (active)

O=S(=O)(Nc1ccc(N2CCOCC2)cc1)c1cccs1
IC50 (Estrogen receptor beta [1]): > 50 µM (not active)
